# pIC50: −log10 of the molar value. Like-named read-outs stand apart in the source and are kept apart here.
# Experiments:
# [1] = Cytotoxicity in MT-4 cells, MTT method; settings: human
# [2] = tested on: HIV-1 IIIB; assay: Anti-HIV-1 activity in MT-4 cell culture (P24 antigen); type: cell-based
# [3] = tested on: VSVG/HIV-luc; assay: Pharmacological model of wild type HIV-1 replication (VSVG/HIV-luc, Cell 293); type: cell-based
# [4] = Solubility of the drugs to be tested; type: physicochemical
# Description: During the test, the solution was dissolved by DMSO to suitable concentration, diluted by culture medium, and immediately added into cell culture.
# [5] = tested on: HBV DNA; assay: HBV DNA in Hep G2.2.15 cell supernatant, fluorescent quantitative PCR; type: cell-based, hepatitis B virus; settings: for HBV DNA copy number / Inhibition ratio (%): cell supernatant
# [6] = tested on: Hep G2.2.15; assay: Cytotoxicity on Hep G2.2.15 (MTT); type: cell-based, human; settings: for Cell Survival Rate: MTT
# [7] = tested on: HCV; assay: Anti-HCV activity, HCV-RNA by automatic PCR ELISA; type: cell-based
# Description: The HCV replication cells (Avva.5) were cultivated in the Dulbecco's improved Eagle medium containing 10% fetal calf serum and 1 mg/ml G418. 293-Sip-L cells were cultivated in the Dulbecco's improved Eagle medium containing 10% fetal calf serum, 250 μg/ml G418 and 150 μg/ml hygromycin B.
# Using Petri culture dish in a diameter of 60 mm, the cells were cultivated in a positive culture medium containing 100 μl of HCV for 12 hours. Then, the cells were cultivated in the fresh medium containing on HCV and the medium was replaced once everyday. When detecting HCV-RNA 7 days after the cells have been infected with HCV, it is necessary to clean the cells using the Dulbecco's improved Eagle medium in trypsinization and centrifugation methods. The upper layer part cleaned for the second time (used for comparison) and the washed cells were collected for RNA extraction and RT-PCR detection. β-actin mRNA was simultaneously determined for the purpose of comparison.
# The quantitative determination on HCV-RNA is performed in automatic PCR Enzyme-linked immunosorbent assay (ELISA). (Edition 2.0, Roche Diagnostics, Branchburg, N.J.)
# HCV-NA level was determined in automatic PCR ELISA.
# [8] = MT-4 cells infected with HIV-1 IIIB
# [9] = Human immunodeficiency virus 1, MT4, 96 h, HIV-1 IIIB in MT-4 cell culture, 4 days, read-out: IC50
# [10] = Human immunodeficiency virus 1, VSVG/HIV-luc, Cell 293, read-out: Remarks IC50
# [11] = Human immunodeficiency virus 1, IIIB, MT4, 96 h
# [12] = 0.06 μg/ml in the cell supernatant
# [13] = 0.6 μg/ml in the cell supernatant
# [14] = 6 μg/ml in the cell supernatant
Structure (SMILES),"CC50 at 4 days [1, 8] [µg/mL]",CC50 at 4 days ([1]; uninfected MT-4 cells) [µg/mL],"IC50 [2, 9] [ng/mL]",Solubility in DMSO [4],Solubility in water [4],other results
"Cc1cn([C@H]2C[C@H](N=[N+]=[N-])[C@@H](CO)O2)c(=O)[nH]c1=O [AZT, Zidovudine, reference compound]",> 0.625,> 0.625,0.182,–,–,–
C#CC1(CO)OC(n2ccc(N)nc2=O)C(F)C1O (stereo not shown) [Compound 1],43.6,40.9,101,DMSO-soluble,water-insoluble,"pIC50 [3, 10]: 6.30"
CC1(CO)OC(n2ccc(O)nc2=O)C(F)C1O (stereo not shown) [Compound 9],31.2,30.1,–,DMSO-soluble,water-insoluble,"IC50 [2, 11]: 162 ng/mL"
[N-]=[N+]=NC1(CO)OC(n2ccc(N)nc2=O)C(F)C1O (stereo not shown) [Compound 15],> 100,> 100,–,DMSO-soluble,water-insoluble,"pIC50 ([3]; Human immunodeficiency virus 1, read-out: Remarks IC50): 8.82; HBV DNA copy number ([5]; 0.016 μg/L): 18.9 *10^5; Inhibition ratio (%) ([5]; 0.016 μg/L): 41.0%; HBV DNA copy number ([5]; 0.08 μg/L): 13.5 *10^5; Inhibition ratio (%) ([5]; 0.08 μg/L): 57.8%; HBV DNA copy number ([5]; 0.4 μg/L): 10.3 *10^5; Inhibition ratio (%) ([5]; 0.4 μg/L): 67.8%; HBV DNA copy number ([5]; 2 μg/L): 5.21 *10^5; Inhibition ratio (%) ([5]; 2 μg/L): 83.7%; EC50 ([5]; Hepatitis B virus, HepG2.2.15, HBV DNA in Hep G2.2.15 supernatant): 0.00019 µg/mL; Effect on HBV DNA copy number (in words) ([5]; after administration, in vitro): significantly reduce; Cell Survival Rate ([6]; 8 μg/ml): 98.7%; Cell Survival Rate ([6]; 40 μg/ml): 96.7%; Cell Survival Rate ([6]; 200 μg/ml): 85.5%; Cell Survival Rate ([6]; 1000 μg/ml): 82.6%; Toxicity (in words) ([6]; in vitro tests): less toxicity; IC50 [2, 11]: 0.01 ng/mL"
[N-]=[N+]=NC1(CO)OC(n2ccc(O)nc2=O)C(F)C1O (stereo not shown) [Compound 17],–,–,–,–,–,"Inhibition effect Test 1 (HCV-RNA level) [7, 12]: 4.9 × 10^2; Inhibition effect Test 2 (HCV-RNA level) [7, 12]: 4.1 × 10^2; Inhibition effect Test 1 (HCV-RNA level) [7, 13]: 0.92 × 10^2; Inhibition effect Test 2 (HCV-RNA level) [7, 13]: 0.78 × 10^2; Inhibition effect Test 1 (HCV-RNA level) [7, 14]: 1.1 × 10^2; Inhibition effect Test 2 (HCV-RNA level) [7, 14]: 0.81 × 10^2; Inhibition effect on HCV (in words) ([7]; 6 μg/ml, 0.6 μg/ml or 0.06 μg/ml): relatively strong inhibition effect; HBV DNA copy number ([5]; 100 μg/L): 19.2 *10^5; Inhibition ratio (%) ([5]; 100 μg/L): 40.6%; HBV DNA copy number ([5]; 500 μg/L): 14.3 *10^5; Inhibition ratio (%) ([5]; 500 μg/L): 52.2%; HBV DNA copy number ([5]; 1000 μg/L): 10.2 *10^5; Inhibition ratio (%) ([5]; 1000 μg/L): 67.9%"
C#CC1(CO)OC(n2cnc3c(F)ncnc32)C(F)C1O (stereo not shown) [Compound 19],43.8,39.8,–,DMSO-soluble,water-insoluble,"pIC50 [3, 10]: 6.00; IC50 [2, 11]: 90 ng/mL"
CC1(CO)OC(n2cnc3c(O)ncnc32)C(F)C1O (stereo not shown) [Compound 36],35.1,37.5,127,DMSO-soluble,water-insoluble,–
N#CC1(CO)OC(n2cnc3c(N)ncnc32)C(F)C1O (stereo not shown) [Compound 39],38.3,36.8,1490,DMSO-soluble,water-insoluble,–
N#CC1(CO)OC(n2cc(F)c3c(O)ncnc32)C(F)C1O (stereo not shown) [Compound 46],48.5,55.4,131,DMSO-soluble,water-insoluble,–
[N-]=[N+]=NC1(CO)OC(n2cc(F)c3c(N)ncnc32)C(F)C1O (stereo not shown) [Compound 50],28.3,27.9,2300,DMSO-soluble,water-insoluble,–
C#CC1(CO)OC(n2cc(F)c3c(N)ncnc32)C(F)C1O (stereo not shown) [Compound 52],41.3,38.6,133,DMSO-soluble,water-insoluble,–
"Cc1ccnc2c1NC(=O)c1cccnc1N2C1CC1 [NVP, Nevirapine, reference compound]",> 12.5,> 12.5,3.64,–,–,–
